Assay results from PMC10518255, “A first-in-class pan-lysyl oxidase inhibitor impairs stromal remodeling and enhances gemcitabine response and survival in pancreatic cancer” (Nature Cancer, 2023).
“And” between values parts separate entries of the source, which are not always exact repeats. Equal entries are not always repeated.

Columns and labels:
[1] = tested on: Lysyl oxidase family activity in ear; experiment: Target engagement: lysyl oxidase family activity in ear after single 30 mg/kg oral dose (Fig. 2g); type: in vivo, rat; set-up: Lysyl oxidase family activity in the ear: unit not given here; details: rats; for Lysyl oxidase family activity in the ear: single 30 mg/kg oral, individual samples, 30 mg/kg
Experimental: Data are presented as mean ± s.d. Two-tailed P value determined by unpaired, nonparametric t-test with a Mann–Whitney U-test correction (comparison to PBS control). h, Lysyl oxidase family activity measured in freshly excised aorta determined by fluorometric activity assay n = 19 (PBS), 5 (4–120 h) biological independent samples. Data presented as mean ± s.d. Two-tailed P value determined by unpaired, nonparametric t-test with a Mann–Whitney U-test correction (comparison to PBS control).
To confirm that PXS-5505 inhibits lysyl oxidase family enzymatic activity in tissues, target engagement experiments were performed following a single oral dose (30 mg kg^−1) in rats. […] Lysyl oxidase family activity was measured in two tissues; aorta (core tissue) and ear (peripheral tissue).

[2] = tested on: KPC CAF remodeled 3D collagen matrices; experiment: Matrix stiffness by unconfined compression testing of organotypic matrices; type: cell-based, mouse; details: day 12, PXS-5505 30 µM, normalized to control, individual samples
Experimental: Fig. 3 PXS-5505 inhibition of CAF remodeling in vitro. a, Quantitative PCR with reverse transcription (qRT–PCR) showing in vitro comparison of KPC CAF relative expression of lysyl oxidase family members compared to KPC CCs from the same model (n = 3 biologically independent samples). Comparisons were determined by 2^–∆∆Ct approach. b, Representative images of 3D organotypic matrix contraction assay at days 2, 6 and 12 in the absence (gray) or presence (pink) of PXS-5505 (30 µM). Scale bars, 5 mm. Comparison of measured area of matrices between control and PXS-5505 treatment groups over time (n = 3 technical samples examined over three biologically independent samples). Data are mean ± s.d. c, Concentration of immature divalent DHLNL and mature trivalent Pyr collagen crosslinks determined by LC–MS from control and PXS-5505-treated organotypic matrices at day 12 (n = 3 technical samples examined over two biologically independent samples). Data are mean ± s.d. […] Data are presented as mean ± s.d. […] Comparison of number of CCs invaded per field of view (FOV) as determined by H&E and PanCK staining (nine images taken from three technical samples from each of three biologically independent contracted matrices), normalized to control. Data are mean ± s.d. Scale bars, 100 μm. […] Source data […]

[3] = Tolerability in mouse PDAC models; type: in vivo; details: >6 months
Text: In our KPC mouse and human PDX in vivo models of PDAC, PXS-5505 reduces collagen deposition and tumor stiffness and improves perfusion of agents into the primary tumor site. […] These in vivo findings match the in vitro organotypic data showing reductions in local invasion. Furthermore, addition of PXS-5505 to gemcitabine treatment extends median survival in the KPC model by approximately 45% and decreases metastatic deposits within the liver compared to gemcitabine alone.

[4] = tested on: cytochrome P450 enzymes; experiment: Cytochrome P450 inhibition

For `Cl.Cl.NC/C=C(\F)CS(=O)(=O)c1cccc2cccnc12.O` [PXS-5505, (Z)-3-fluoro-4-(quinolin-8-ylsulfonyl)but-2-en-1-amine dihydrochloride monohydrate], the “recovery of lysyl oxidase family activity in the ear” value ([1]; single 30 mg kg−1 oral, over 120 h) was “approximately 50%”, the “Lysyl oxidase family activity in the ear” value ([1]; 4 h) was 45.365 and 48.796 and 39.3331 and 45.8641 and 44.4191 and the “Lysyl oxidase family activity in the ear” value ([1]; 24 h) was 63.1181 and 58.052 and 51.7601 and 46.8877 and 41.975. The “Lysyl oxidase family activity in the ear” value ([1]; 48 h) was 53.5883 and 61.6934 and 50.7554 and 53.1219, the “Lysyl oxidase family activity in the ear” value ([1]; 120 h) was 62.7632 and 56.3978 and 53.8738 and 91.7643 and the “matrix stiffness by unconfined compression testing” value [2] was 0.918 and 0.779 and 0.916 and 0.962 and 0.835 and 0.748 and 0.939 and 0.975. The “adverse side effects in mouse PDAC models” value [3] was “no adverse side effects” and the “inhibition of cytochrome P450 enzymes” value [4] was “does not inhibit”.
